{"source": "patent US11992697B2", "about": "“X-ray psoralen activated cancer therapy (X-PACT)” (IMMUNOLIGHT, LLC, priority 2015, dated 2024)", "key": {"4T1-HER2 cells": {"test_system": "4T1-HER2 cells", "experiment": "In-vitro X-PACT Annexin V (+) signal by Guava flow cytometry (FIGS. 2B, 4, 5)", "assay_type": "cell-based, murine", "conditions": "component alone; 36 independent irradiation experiments, 1 Gy at 80 kVp", "procedure": "Guava Annexin V flow cell cytometry was used to quantify cytotoxicity in 3 murine tumor cell lines (breast-4T1, glioma-CT2A, and sarcoma KP15B8). In-vitro X-PACT studies were conducted on cells prepared in the following manner. Cells were incubated in appropriate growing media and buffers before being trypsinized and plated evenly onto twelve (12) well plates for 24 hours. About 20 minutes prior to X-PACT irradiation, the wells of each plate were exposed to the following combinations of additives: (1) control—cells only with no additives, (2) UVADEX only, (3) phosphors only, (4) UVADEX+phosphors. Each plate had twelve (12) wells with three wells for each of the four treatment arms. […]\nTwo primary flow cytometry metrics were used to evaluate the X-PACT treatments, both determined at 48h after X-PACT treatment. […] The first metric is metabolically viable cell count (or cell viability) determined from the number of whole cells per well as determined using forward scattering (FSC). […] (All wells on a given plate receive the same dose.) The second metric is Annexin V (+) signal, which is the fraction of the metabolically viable cells which expressed a positive Annexin V signal as determined by flow cell cytometry, and include any cells advancing toward early or late apoptotic cell death. […]"}, "[1]": {"test_system": "CT2A (murine malignant glioma)", "experiment": "UV light activated psoralen, Cell-Titer-Glo Luminescence Cell Viability Assay (FIG. 3A)", "assay_type": "cell-based", "conditions": "psoralen 40 μM; UV light 0, 0.25, 0.5, 1.0 J/cm^2", "procedure": "(§1) Metabolic cell viability was also assessed visually using Methylene blue staining and ATP-induced Luminescence imaging (Cell-Titer-Glo® Luminescence Cell Viability Assay). The luminescence imaging permitted investigation of the cytotoxicity of psoralen activated directly with a UV lamp, and in the absence of phosphors and x-ray radiation.\n(§2) N=4 for each cell line at each UV light condition (0, 0.25, 0.5, 1.0 J/cm^2). The psoralen concentration was 40 μM."}, "4T1": {"test_system": "4T1", "experiment": "UV light activated psoralen, Cell-Titer-Glo Luminescence Cell Viability Assay (FIG. 3A)", "assay_type": "cell-based, murine", "conditions": "psoralen 40 μM; UV light 0, 0.25, 0.5, 1.0 J/cm^2", "procedure": "as §1, §2"}, "KP158B (sarcoma)": {"test_system": "KP158B (sarcoma)", "experiment": "UV light activated psoralen, Cell-Titer-Glo Luminescence Cell Viability Assay (FIG. 3A)", "assay_type": "cell-based, murine", "conditions": "psoralen 40 μM; UV light 0, 0.25, 0.5, 1.0 J/cm^2", "procedure": "as §1, §2"}, "[2]": {"test_system": "syngeneic 4T1-HER2 tumors", "experiment": "In-vivo X-PACT trial, tumor growth (FIG. 6)", "design": "species or system BALB/c mice", "conditions": "5 μM psoralen (AMT) or 100 μg phosphor with x-ray; compared with expectation from in-vitro data", "procedure": "An in-vivo trial was conducted for preliminary evaluation of X-PACT administered to syngeneic 4T1-HER2 tumors grown on BALB/c mice. There were 4 arms of the trial: (1) saline only (control), (2) phosphors alone with x-ray, (3) psoralen (AMT) alone with x-ray, and (4) full X-PACT treatment including both phosphor and psoralen and x-ray irradiation. X-PACT treatments were given in 3 fractions per week, to a total of 6 fractions. In arms 2-3 a consistent x-ray irradiation technique was used (about 1.2 Gy delivered at 75 kVp by 30 mA in 3 minutes) with 100 μg of phosphor, and 5 μM psoralen (AMT) (with μM representing micromolar). 0.5 Million tumor cells were injected per mouse. There were 6-8 mice per arm, and the study was repeated a second time, yielding effective sample sizes of 12-16.\nIn this evaluation, X-PACT treatment was applied to BALBC mice with syngeneic 4T1-HER2 tumors. In the separate psoralen and phosphor control arms (blue and red respectively), 5 μM psoralen (AMT) and 100 μg of phosphor where applied. A consistent x-ray irradiation technique was used for all arms (except saline control) which was 2 Gy delivered at 75 kVp by 30 mA in 3 minutes."}}, "data": [{"compound": "O=c1ccc2cc3ccoc3cc2o1", "note": "[psoralen]", "values": [{"measurement": "effect on cytotoxicity (Annexin V signal), multi-variable regression", "setting": "4T1-HER2 cells", "result": "neither psoralen nor phosphor alone had a strong effect"}, {"measurement": "effect of UV light activated psoralen on viable cells", "setting": "[1]", "result": "reduce viable cells"}, {"measurement": "effect of UV light activated psoralen on viable cells", "setting": "4T1", "result": "reduce viable cells"}, {"measurement": "effect of UV light activated psoralen on viable cells", "setting": "KP158B (sarcoma)", "result": "reduce viable cells"}, {"measurement": "component effect on tumor growth (single-component arm with x-ray)", "setting": "[2]", "result": "slightly higher component effect"}]}]}
